In US20090209491A1, “Lactams as conformationally constrained peptidomimetic inhibitors” (Trustees of Tufts College, priority 2004, published 2009) one finds IC50 data, which are given here for 15 molecules.

Each structure is given as a SMILES string.

DPIV, sequence (P27487 whole entry): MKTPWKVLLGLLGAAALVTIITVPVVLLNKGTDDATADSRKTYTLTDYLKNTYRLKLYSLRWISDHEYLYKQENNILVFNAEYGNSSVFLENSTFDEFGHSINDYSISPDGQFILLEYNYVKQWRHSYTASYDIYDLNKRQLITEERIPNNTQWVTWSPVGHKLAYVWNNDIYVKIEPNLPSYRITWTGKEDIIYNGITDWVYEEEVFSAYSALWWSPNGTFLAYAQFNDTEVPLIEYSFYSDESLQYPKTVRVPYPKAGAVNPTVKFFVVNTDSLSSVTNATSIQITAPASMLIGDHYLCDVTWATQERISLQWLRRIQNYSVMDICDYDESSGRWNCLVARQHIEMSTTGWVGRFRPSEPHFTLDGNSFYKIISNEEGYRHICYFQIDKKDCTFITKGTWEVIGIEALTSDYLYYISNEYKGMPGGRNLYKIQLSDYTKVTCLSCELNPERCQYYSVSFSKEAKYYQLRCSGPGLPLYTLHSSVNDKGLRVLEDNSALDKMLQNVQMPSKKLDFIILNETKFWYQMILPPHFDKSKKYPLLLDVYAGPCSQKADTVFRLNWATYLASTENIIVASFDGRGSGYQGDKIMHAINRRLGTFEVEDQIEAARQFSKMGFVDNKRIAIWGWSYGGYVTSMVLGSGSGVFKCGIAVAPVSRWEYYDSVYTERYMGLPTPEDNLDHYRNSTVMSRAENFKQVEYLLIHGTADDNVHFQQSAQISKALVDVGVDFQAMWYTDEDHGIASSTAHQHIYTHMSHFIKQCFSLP

The target of this test is DPIV (Homo sapiens, UniProt P27487). Kind of test: DPIV Inhibition Assay. Type of test: biochemical. Particulars: pH 8; substrate L-alanyl-L-proline-para-nitroanilide; inhibitor stood in pH 8 buffer overnight; absorbance 410 nm. How it is done:
The inhibitor solution was prepared by dissolving 3-5 mg of inhibitor in pH 2 solution (0.01 N HCl), such that the concentration of the solution was equal to 1 mg/10 μL. A 10 μL sample of this solution was then added to 990 μL of pH 8 buffer (0.1 M HEPES, 0.14 M NaCl), and the solution was allowed to stand at room temperature overnight.
The enzyme solution was prepared by diluting 20 μL of DPIV (concentration 2.5 μM) into 40 mL of pH 8 buffer.
The substrate solution was prepared by dissolving 2.0 mg of L-alanyl-L-proline-para-nitroanilide into 20 mL of pH 8 buffer.
250 μL of enzyme solution was added to well #B1 to #H1, #A2 to #H2, and #A3 to #H3 of a 96 well plate, while well #Al received 250 μL of pH 8 buffer instead of enzyme solution. 90 μL of pH 8 buffer was then added to column 5 (from well #A5 to #H5).
A 1:10 dilution was then performed by adding inhibitor solution to #A5 and the solution was mixed well before transferring 10 μL of this solution from #A5 to #B5. The solution in #B5 was then mixed well before transferring 10 μL of this solution from #B5 to #C5. The solution in #C5 was then mixed well before transferring 10 μL of this solution from #C5 to #D5. The solution in #D5 was then mixed well before transferring 10 μL of this solution from #D5 to #E5. The solution in #E5 was then mixed well before transferring 10 μL of this solution from #E5 to #F5. The solution in #F5 was then mixed well before transferring 10 μL of this solution from #F5 to #G5. The solution in #G5 was then mixed well before transferring 10 μL of this solution from #G5 to #H5.
A 30 μL aliquot was then transferred from #H5 to #H3 for row H, and the contents were mixed well. The analogous procedure was repeated for rows G, F, E, D, C, B, and A sequentially. The plate was then shaken on a plate shaker for 5 minutes before allowing the plate to incubate at room temperature for an additional 5 minutes.
Once the plate had been allowed to incubate, 30 μL of substrate was added to each well except well #A1. The plate was then placed on a plate shaker for 5 minutes before allowing the plate to incubate at room temperature for 25 minutes. The absorbance was then immediately read at a wavelength of 410 nm.
The molecule `CC[C@@H](B(O)O)N1CC[C@](N)(Cc2ccccc2)C1=O` [N] gave an IC50 of 3 nM.

Molecule `C[C@@H](B(O)O)N1CCC(N)C1=O` (stereo partly drawn) [B] gave an IC50 of 40 nM.

As to `CC[C@H](B(O)O)N1CC[C@](N)(CC)C1=O` [Compound I], inhibition was half-maximal at 25 nM (IC50).

In the case of `C[C@@H](B(O)O)N1CC[C@](N)(CC(=O)O)C1=O` [K], it took 36 nM to reach half-maximal inhibition (IC50).

Regarding `C[C@@H](B(O)O)N1CC[C@]2(CCCN2)C1=O` [Q], 9.9 nM corresponded to half-maximal inhibition (IC50).

On to `CC(B(O)O)N1CCC(N)C1=O` (stereo not drawn) [D], for which the IC50 came to 34 nM.

Regarding `C[C@@H](B(O)O)N1CC[C@@](C)(N)C1=O` [G], 6.7 nM corresponded to half-maximal inhibition (IC50).

The molecule `C[C@H](B(O)O)N1CCC(N)C1=O` (stereo partly drawn) [C] gave an IC50 of 340 nM.

For the molecule `CN[C@]1(Cc2ccccc2)CCN([C@@H](C)B(O)O)C1=O` [O], inhibition was half-maximal at 630 nM (IC50).

Molecule `C[C@H](C#N)N1CCC(N)C1=O` (stereo partly drawn) [A] yielded an IC50 of 11000 nM.

Molecule `C[C@@H](B(O)O)N1CC[C@](N)(Cc2cccc3ccccc23)C1=O` [P] had an IC50 of 2.1 nM.

As for `C[C@@H](B(O)O)N1CC[C@](N)(Cc2ccccc2)C1=O` [M], the 50% inhibitory concentration (IC50) was 2.6 nM.

Consider `CC(B(O)O)N1CCC(C)(N)C1=O` (stereo not drawn) [E], for which the IC50 was determined as 23 nM.

The molecule `CCCC[C@@]1(N)CCN([C@@H](C)B(O)O)C1=O` [J] displayed an IC50 of 1.9 nM.

In the case of `C[C@@H](B(O)O)N1CC[C@](C)(N)C1=O` [F], the midpoint of inhibition, the IC50, lay at 69000 nM.
